Laboratory results: PubChem BioAssay AID1259407 (Chemical Carcinogenesis Research Information System (CCRIS), 2018)
Calls of active or inactive are those of the source. How the calls were made is not given here.

Test system: CCRIS mutagenicity, Ames/micronucleus/aberration tests
Assay: CCRIS mutagenicity studies
[1] = Test System: AMES SALMONELLA TYPHIMURIUM, Strain/Indicator: TA98, Metabolic Activation: NONE, Method: PREINCUBATION
[2] = Test System: AMES SALMONELLA TYPHIMURIUM, Strain/Indicator: TA98, Metabolic Activation: NONE, Method: STANDARD PLATE
[3] = Test System: AMES SALMONELLA TYPHIMURIUM, Strain/Indicator: TA100, Metabolic Activation: NONE, Method: PREINCUBATION
[4] = Test System: AMES SALMONELLA TYPHIMURIUM, Strain/Indicator: TA100, Metabolic Activation: NONE, Method: STANDARD PLATE
[5] = Test System: AMES SALMONELLA TYPHIMURIUM, Strain/Indicator: TA1535, Metabolic Activation: NONE, Method: STANDARD PLATE
[6] = Test System: AMES SALMONELLA TYPHIMURIUM, Strain/Indicator: TA1537, Metabolic Activation: NONE, Method: STANDARD PLATE
[7] = Test System: E. COLI, Strain/Indicator: WP2 UVRA, Metabolic Activation: NONE, Method: STANDARD PLATE

Measured: mutagenic call

O=[N+]([O-])c1ccc(Cl)c([N+](=O)[O-])c1
active: Test System: AMES SALMONELLA TYPHIMURIUM, Strain/Indicator: TA98(1,8-DNP6), Metabolic Activation: NONE, Method: PREINCUBATION active; positive | Test System: AMES SALMONELLA TYPHIMURIUM, Strain/Indicator: TA98(NR), Metabolic Activation: NONE, Method: PREINCUBATION active; positive | [1] active; positive | [2] active; positive | Test System: AMES SALMONELLA TYPHIMURIUM, Strain/Indicator: TA98, Metabolic Activation: RAT LIVER S-9, AROCLOR 1254 (10%), Method: STANDARD PLATE active; positive | Test System: AMES SALMONELLA TYPHIMURIUM, Strain/Indicator: TA98, Metabolic Activation: RAT, LIVER, S-9, KANECHLOR 500, Method: PREINCUBATION active; positive | Test System: AMES SALMONELLA TYPHIMURIUM, Strain/Indicator: TA98NR, Metabolic Activation: NONE, Method: STANDARD PLATE active; positive | Test System: AMES SALMONELLA TYPHIMURIUM, Strain/Indicator: TA100(NR), Metabolic Activation: NONE, Method: PREINCUBATION active; positive | Test System: AMES SALMONELLA TYPHIMURIUM, Strain/Indicator: TA100/GSH-, Metabolic Activation: NONE, Method: PREINCUBATION active; positive | [3] active; positive | [4] active; positive | Test System: AMES SALMONELLA TYPHIMURIUM, Strain/Indicator: YG1021, Metabolic Activation: NONE, Method: STANDARD PLATE active; positive | Test System: AMES SALMONELLA TYPHIMURIUM, Strain/Indicator: YG1024, Metabolic Activation: NONE, Method: STANDARD PLATE active; positive | Test System: Ames Salmonella typhimurium, Strain/Indicator: TA98, Metabolic Activation: None, Method: Preincubation active; positive | Test System: Ames Salmonella typhimurium, Strain/Indicator: TA98, Metabolic Activation: Rat, Liver, S9, Sodium phenobarbital and 5,6-benzoflavone (10%), Method: Preincubation active; positive | Test System: Ames Salmonella typhimurium, Strain/Indicator: TA100, Metabolic Activation: None, Method: Preincubation active; positive | Test System: Ames Salmonella typhimurium, Strain/Indicator: TA100, Metabolic Activation: Rat, Liver, S9, Sodium phenobarbital and 5,6-benzoflavone (10%), Method: Preincubation active; positive | Test System: Ames Salmonella typhimurium, Strain/Indicator: TA1535, Metabolic Activation: None, Method: Preincubation active; positive | Test System: Ames Salmonella typhimurium, Strain/Indicator: TA1535, Metabolic Activation: Rat, Liver, S9, Sodium phenobarbital and 5,6-benzoflavone (10%), Method: Preincubation active; positive | Test System: Ames Salmonella typhimurium, Strain/Indicator: TA1537, Metabolic Activation: Rat, Liver, S9, Sodium phenobarbital and 5,6-benzoflavone (10%), Method: Preincubation active; positive
inactive: Test System: AMES SALMONELLA TYPHIMURIUM, Strain/Indicator: TA98NR/1,8-DNP6, Metabolic Activation: NONE, Method: STANDARD PLATE inactive; negative | Test System: AMES SALMONELLA TYPHIMURIUM, Strain/Indicator: TA100, Metabolic Activation: RAT, LIVER, S-9, KANECHLOR 500, Method: PREINCUBATION inactive; negative

Nc1nc(Cl)nc2c1ncn2[C@H]1C[C@H](O)[C@@H](CO)O1
inactive: End Point: In vivo chromosomal aberrations, Test System: Bone marrow cells, Species: Mouse, Strain/Sex: Balb/C/Male and female, Route: Intraperitoneal inactive; negative

O=CN(O)c1ccc(Cl)cc1
inactive: [2] inactive; negative | [4] inactive; negative
active: Test System: AMES SALMONELLA TYPHIMURIUM, Strain/Indicator: TA98, Metabolic Activation: RAT, LIVER, S-9, AROCLOR 1254, Method: STANDARD PLATE active; positive | Test System: AMES SALMONELLA TYPHIMURIUM, Strain/Indicator: TA100, Metabolic Activation: RAT, LIVER, S-9, AROCLOR 1254, Method: STANDARD PLATE active; positive

O=C1CCCCC1
active: Test System: Mouse lymphoma, Strain/Indicator: L5178Y (tk+/tk-), Metabolic Activation: Rat, Liver, S-9, Aroclor 1254, Method: Suspension/plate active; positive
inactive: Test System: AMES SALMONELLA TYPHIMURIUM, Strain/Indicator: TA98, Metabolic Activation: HAMSTER, LIVER, S-9, AROCLOR 1254, Method: PREINCUBATION inactive; negative | [1] inactive; negative | Test System: AMES SALMONELLA TYPHIMURIUM, Strain/Indicator: TA98, Metabolic Activation: RAT, LIVER, S-9, AROCLOR 1254, Method: PREINCUBATION inactive; negative | Test System: AMES SALMONELLA TYPHIMURIUM, Strain/Indicator: TA100, Metabolic Activation: HAMSTER, LIVER, S-9, AROCLOR 1254, Method: PREINCUBATION inactive; negative | [3] inactive; negative | Test System: AMES SALMONELLA TYPHIMURIUM, Strain/Indicator: TA100, Metabolic Activation: RAT, LIVER, S-9, AROCLOR 1254, Method: PREINCUBATION inactive; negative | Test System: AMES SALMONELLA TYPHIMURIUM, Strain/Indicator: TA1535, Metabolic Activation: HAMSTER, LIVER, S-9, AROCLOR 1254, Method: PREINCUBATION inactive; negative | Test System: AMES SALMONELLA TYPHIMURIUM, Strain/Indicator: TA1535, Metabolic Activation: NONE, Method: PREINCUBATION inactive; negative | Test System: AMES SALMONELLA TYPHIMURIUM, Strain/Indicator: TA1535, Metabolic Activation: RAT, LIVER, S-9, AROCLOR 1254, Method: PREINCUBATION inactive; negative | Test System: AMES SALMONELLA TYPHIMURIUM, Strain/Indicator: TA1537, Metabolic Activation: HAMSTER, LIVER, S-9, AROCLOR 1254, Method: PREINCUBATION inactive; negative | Test System: AMES SALMONELLA TYPHIMURIUM, Strain/Indicator: TA1537, Metabolic Activation: NONE, Method: PREINCUBATION inactive; negative | Test System: AMES SALMONELLA TYPHIMURIUM, Strain/Indicator: TA1537, Metabolic Activation: RAT, LIVER, S-9, AROCLOR 1254, Method: PREINCUBATION inactive; negative | Test System: Mouse lymphoma, Strain/Indicator: L5178Y (tk+/tk-), Metabolic Activation: None, Method: Suspension/plate inactive; negative

CN1C(=O)CC(=O)N(c2ccccc2)c2cc(Cl)ccc21
inactive: [2] inactive; negative | Test System: AMES SALMONELLA TYPHIMURIUM, Strain/Indicator: TA98, Metabolic Activation: RAT, LIVER, S-9, PHENOBARBITAL AND 5,6-BENZOFLAVONE, Method: STANDARD PLATE inactive; negative | [4] inactive; negative | Test System: AMES SALMONELLA TYPHIMURIUM, Strain/Indicator: TA100, Metabolic Activation: RAT, LIVER, S-9, PHENOBARBITAL AND 5,6-BENZOFLAVONE, Method: STANDARD PLATE inactive; negative | [5] inactive; negative | Test System: AMES SALMONELLA TYPHIMURIUM, Strain/Indicator: TA1535, Metabolic Activation: RAT, LIVER, S-9, PHENOBARBITAL AND 5,6-BENZOFLAVONE, Method: STANDARD PLATE inactive; negative | [6] inactive; negative | Test System: AMES SALMONELLA TYPHIMURIUM, Strain/Indicator: TA1537, Metabolic Activation: RAT, LIVER, S-9, PHENOBARBITAL AND 5,6-BENZOFLAVONE, Method: STANDARD PLATE inactive; negative | [7] inactive; negative

O=C(O)[C@@H]1CS[C@H](c2ccccc2O)N1C(=O)CCS
inactive: [2] inactive; negative | Test System: AMES SALMONELLA TYPHIMURIUM, Strain/Indicator: TA98, Metabolic Activation: S-9, Method: STANDARD PLATE inactive; negative | [4] inactive; negative | Test System: AMES SALMONELLA TYPHIMURIUM, Strain/Indicator: TA100, Metabolic Activation: S-9, Method: STANDARD PLATE inactive; negative | [5] inactive; negative | Test System: AMES SALMONELLA TYPHIMURIUM, Strain/Indicator: TA1535, Metabolic Activation: S-9, Method: STANDARD PLATE inactive; negative | [6] inactive; negative | Test System: AMES SALMONELLA TYPHIMURIUM, Strain/Indicator: TA1537, Metabolic Activation: S-9, Method: STANDARD PLATE inactive; negative | Test System: AMES SALMONELLA TYPHIMURIUM, Strain/Indicator: TA1538, Metabolic Activation: NONE, Method: STANDARD PLATE inactive; negative | Test System: AMES SALMONELLA TYPHIMURIUM, Strain/Indicator: TA1538, Metabolic Activation: S-9, Method: STANDARD PLATE inactive; negative | Test System: E. COLI, Strain/Indicator: WP2, Metabolic Activation: NONE, Method: STANDARD PLATE inactive; negative | [7] inactive; negative | Test System: E. COLI, Strain/Indicator: WP2 UVRA, Metabolic Activation: S-9, Method: STANDARD PLATE inactive; negative
